The structures appear in SMILES notation. Where only a bound is given, the exact number is not on record here.

A word on the melting point: it is the temperature, or range, at which the solid turns liquid. In turn, `CSc1ccc(N2CCOCC2)c(NC(=N)C(C)C)c1` returned a melting point of 155 °C.

`CCC1CCn2c(nc(-c3ccncn3)cc2=O)N1CC(=O)c1ccccc1` (configuration not stated): the melting point was 187 to 189 °C.

In turn, `Cc1occc1C(=O)Nc1ccc(Cl)c(C2OCCO2)c1` came in with a melting point of 134 to 135 °C.

Regarding `CCOC(=O)c1c2c3c(cccc3n1C)CCC2`, the melting point lay within 80 to 81 °C.

Consider `COC(=O)c1nc(CI)n(-c2ccc(Cl)cc2C(=O)c2ccccc2)n1`, for which the melting point lay in the range of 139 to 142 °C.

In turn, `CCS(=O)(=O)Oc1cc2c(C)c(CCN3CCN(c4ccccc4OC)CC3)c(=O)oc2cc1OC` returned a melting point of 148 to 150 °C.

`O=C(O)c1ccccc1NCCCN1c2ccccc2CCc2ccccc21` registered a melting point of 170 to 172 °C.

Compound `CN(C)CC1CCC2(CC1)Nc1cc(Cl)c(S(N)(=O)=O)cc1S(=O)(=O)N2` (configuration not stated) gave a melting point of 273 °C.

On to `CCOC(=O)c1ccc(/C=C(\C)c2ccc3c(c2)C(C)(C)CCC3(C)C)cc1`, for which the melting point was 90 to 91 °C.

Compound `CC(Oc1c(Br)cc(Br)cc1Br)c1cc(Br)c(Br)cc1Br` (configuration not stated) displayed a melting point of 110 to 112 °C.

`O=C1c2ccccc2C(=O)N1CC1CN(Cc2ccccc2)CCN1Cc1ccccc1` (configuration not stated) showed a melting point of 124 °C.

Take `CC(C)c1nc(CCCO)n(CCO)c1Sc1cc(Cl)cc(Cl)c1`: the melting point lay in the range of 155 to 163 °C.

As to `CCCC(=O)c1sc(NC(=O)c2ccncc2)nc1-c1ccco1`, the melting point lay in the range of 191 to 194 °C.

`Cn1c(=O)c(C#N)c(N2CCNCC2)c2cc(Cl)ccc21` returned a melting point of 223 °C.

Consider `CCOC(=O)C(C(=O)OCC)(c1ccccc1)N1CCN(CCO)CC1`, for which the melting point lay in the range of 63 to 64 °C.

`COc1cc(CO)c([N+](=O)[O-])cc1OCCCC(=O)O` had a melting point of 172 to 175 °C.

As for `Fc1ccc(Cn2c(NC3CCN(CCNc4ncccn4)CC3)nc3ccccc32)cc1`, the melting point is 168 °C.

The compound `O=C(Nc1ccc2c(c1)c1ccccc1n2CCO)c1ccccc1Cl` returned a melting point of 168 to 169 °C.

In turn, `NC(=O)c1ccc(C(Cc2ccc(F)cc2)C(=O)Nc2nc3ccccc3o2)cc1` (configuration not stated) came in with a melting point of 137 to 139 °C.

Consider `CC(=O)N[C@@H](CSC(=O)C(C)C)C(=O)OC(C)C`, for which the melting point lay within 59 to 59.5 °C.

Consider `CC(=O)Nc1c(C(=O)c2ccc(O)c(O)c2)[nH]c2cc(Cl)ccc12`, for which the melting point was 193 to 200 °C.

In the case of `CCOc1cc(C=C2CCN(C(N)=O)C2=O)ccc1O`, the melting point lay in the range of 204 to 205 °C.

Turning to `Cc1nc2c(s1)CN=C(c1ccccc1)c1cc(Cl)ccc1-2`, the melting point lay within 128 to 130 °C.

Compound `C=CCN(CC=C)C(=O)n1cnc(S(=O)(=O)CCCCC)n1` registered a melting point of 28 to 30 °C.

In turn, `CSCC(C)(C)C(=O)N(C)c1cnc(-c2cncc(F)c2)s1` showed a melting point of 98 to 102 °C.

Regarding `COc1cc(Nc2ncc3cc(-c4c(Cl)cccc4Cl)c(=O)n(C)c3n2)cc(OC)c1`, the melting point lay in the range of 228 to 230 °C.

In the case of `CCCCCCCCCCCCCCCCN(CCCC)CCCCCCO`, the melting point was 58 to 59 °C.

Turning to `COc1ccc(C=CC(=O)CN2CCOCC2)cc1`, the melting point turned out to be 78 °C.

As to `CCCCOc1nc(NC(C)=O)nc2ccc(Cl)nc12`, the melting point lay within 158 to 159 °C.

Compound `Cc1cccc(C)c1N1Cc2cnc(Nc3ccccc3)nc2N(c2cccc(CCN)c2)C1=O` gave a melting point of 128 °C.

In turn, `COc1ccc(Nc2nccc(-c3ccncc3)n2)cc1` yielded a melting point of 174 to 175 °C.

`ON=Cc1ccc2c(c1)COC2c1ccc(F)cc1` (configuration not stated) gave a melting point of 158 to 159 °C.

The compound `Cc1cn(C(=O)OC(C)(C)C)c2ccc(Br)cc12` displayed a melting point of 92 °C.

For `COc1ccc(C2=NN(C3CCN(C(=O)CN4C(=O)Cc5ccccc54)CC3)C(=O)C2(C)C)cc1OC`, the melting point came out at 178 °C.

On to `CCOC(=O)Cn1ncc(-c2ccccn2)c1-c1ccccc1`, for which the melting point was 98 to 100 °C.

`O=C1Cc2c(cccc2NC(=O)c2cccn(-c3ccc(F)cc3)c2=O)N1` gave a melting point of 293 to 295 °C.

In the case of `CCN(CC)C(=O)NCCOC(=O)c1cc(Oc2ccc(C(F)(F)F)cc2Cl)ccc1[N+](=O)[O-]`, the melting point is 89 to 90 °C.

For `CCCCCCCCCCCCCCCCSCC(CNS(=O)(=O)CCCCl)NC(=O)NC` (configuration not stated), the melting point was in the range of 79 to 80 °C.

The compound `OCC(CO)c1nc(NCc2ccccn2)c2c(-c3ccccc3)csc2n1` came in with a melting point of 137 to 139 °C.

In turn, `CO[C@@H]1CCN2C(=O)N(c3ccc(C#N)c4ccccc34)C(=O)[C@H]12` (relative stereo) displayed a melting point of 185 to 186 °C.

`Nc1nccc(-c2cn(-c3ccccc3)nc2-c2ccc(F)cc2)n1` displayed a melting point of 170 to 171 °C.

For the compound `CCn1c(=O)c2[nH]c(/C=C/c3ccc(OC)c(F)c3)nc2n(CC)c1=O`, the melting point was greater than 270 °C.

Compound `COC(=O)c1ccc(-c2nnc(CSCCOc3ccc(Cl)cc3Cl)o2)cc1` came in with a melting point of 148 to 152 °C.

In turn, `CC[C@H](NC(=O)OC(C)(C)C)c1nc2c(C(F)(F)F)cccc2c(=O)o1` displayed a melting point of 136 to 138 °C.

As to `COC(=O)c1c(-c2cc(OC)c(OC)c(OC)c2)c2cc(OC)c(OCc3cccs3)cc2c(=O)n1-c1ccc(N)cc1`, the melting point was 205 to 206 °C.

For the compound `CC(C)(C)OC(=O)Nc1ccc(C(=O)N2CCC(c3[nH]nc4c3C(=O)c3c(NC(=O)NN5CCOCC5)cccc3-4)CC2)cc1`, the melting point lay within 212 to 214 °C.

In turn, `CCCCCN1C(=O)CC(c2ccc(C(F)(F)F)cc2)C(C(=O)OCC)C1=O` (configuration not stated) yielded a melting point of 112 to 115 °C.

Consider `CC(=CCO)c1ccc(C2CCCCC2)cc1`, for which the melting point was 54 to 55 °C.

Consider `CC(=NOCc1ccc2nonc2c1)c1ccc(O)c(F)c1`, for which the melting point is 125 to 126 °C.

In turn, `Clc1ncn(CCOc2ccc(Oc3ccccc3)cc2)c1Cl` had a melting point of 89 to 91 °C.

For the compound `COc1cc2ncnc(N3CCc4ccccc43)c2cc1OC`, the melting point fell in the range of 162 to 163 °C.

`O=C1CC[C@H](c2ccc(NC(=O)OCc3ccccc3)cc2)C1` returned a melting point of 96.3 to 98.5 °C.

Turning to `O=S(=O)(NCCCCOc1ccc(-n2cnnn2)cc1)c1ccc(Br)cc1`, the melting point is 109 to 110 °C.

The compound `CCNc1nc(C(C)(C)C)nn1-c1c(Cl)cc(C(F)(F)F)cc1Cl` yielded a melting point of 67 to 70 °C.

Take `CC(C)(C)OC(=O)N1CC=C(c2nc3c(Cl)cccc3s2)CC1`: the melting point fell in the range of 98 to 101 °C.

As for `Cc1ncc2n1C(=O)N(C1CCN(C(=O)CCS(=O)(=O)c3ccc4cc(Cl)ccc4c3)CC1)C2`, the melting point is 195 °C.

Turning to `CC(C)(C)[Si](OCC1CSC2=C(O1)c1ccccc1C(=O)C2=O)(c1ccccc1)c1ccccc1` (configuration not stated), the melting point was in the range of 205 to 210 °C.

In turn, `Cc1nc2ccc3c(c2nc1C)OC(CN1CC=C(c2c[nH]c4ccccc24)CC1)CO3` (configuration not stated) yielded a melting point of 153 to 155 °C.

In turn, `O=C1OC(O)c2ccc(Cl)cc21` (configuration not stated) registered a melting point of 108 to 109 °C.

`S=C(Nc1ccc(Cl)c(Cl)c1)Nc1ncccc1OCc1ccccc1` came in with a melting point of 144 to 146 °C.

Take `COC(=O)CC1=CCN(C)c2ccc(Cl)cc21`: the melting point was in the range of 99 to 101 °C.

`COC(C)c1cccc2[nH]c3cnc(C(=O)OC(C)C)c(C)c3c12` (configuration not stated) displayed a melting point of 153 to 154 °C.

Turning to `Cc1nc(CO)n(Cc2ccccc2)c1C`, the melting point was 156 to 158 °C.

As to `Cc1nc(N2CCN(Cc3ccc(F)cc3)C2=O)sc1C(=O)NCc1ccncn1`, the melting point was in the range of 175 to 176 °C.

For the compound `CC1CCC2C3CC(=O)C4=CC(=O)CCC4(C)C3CCC12C` (configuration not stated), the melting point lay within 94 to 95 °C.

As to `COc1ccccc1NC=C1C(=O)N(c2ccc(C(=O)O)cc2)N=C1C`, the melting point is greater than 300 °C.

`c1ccc(C(CCOc2ccc(CCC3=NCCCO3)cc2)(c2ccccc2)c2ccccc2)cc1` showed a melting point of 60 to 63 °C.

In turn, `BrC12CC3CC(CC(C3)C1=C1C3CC4CC(C3)CC1C4)C2` returned a melting point of 130 to 132 °C.

On to `CN(c1cccc2cc(-c3ncc(CN4CCC5(CC4)CNC(=O)O5)s3)[nH]c12)S(=O)(=O)c1cccs1`, for which the melting point worked out at 224 °C.

For the compound `CN(CCCOc1ccc(C=C2SC(=O)NC2=O)cc1)c1nc2ccccc2o1`, the melting point was in the range of 202 to 204 °C.

Take `O=c1ccc2ccc(OCCCN3CCC(C(O)(c4ccc(F)cc4)c4ccc(F)cc4)CC3)cc2o1`: the melting point was in the range of 99 to 120 °C.

On to `CCN(CC)c1cccc(N(CC)CC)c1C(=O)O`, for which the melting point fell in the range of 112 to 114 °C.

`C#CCN1CCNC1=C[N+](=O)[O-]`: the melting point was 146 to 147 °C.

For the compound `Cc1c(N2C[C@@H]3[C@@H](O)CCN3C2=O)ccc(C#N)c1Cl`, the melting point lay in the range of 148 to 149 °C.

The compound `O=C(O)C[C@H]1CCCC[C@H]1n1nc(-c2c(-c3ccccc3)nn3ccccc23)ccc1=O` (relative stereo) registered a melting point of 238 to 240 °C.

Consider `O=C1OC(=O)c2cscc21`, for which the melting point is 147 to 149 °C.

In the case of `CCOC(=O)c1cc2ccnc(N(Cc3ccccc3)Cc3ccccc3)c2[nH]1`, the melting point was in the range of 120 to 123 °C.

On to `CC(=O)Nc1ccc(F)cc1C`, for which the melting point lay in the range of 131 to 132 °C.

Turning to `CN1CCN(c2cccc(Nc3ccc(-c4ccoc4)cc3N)c2)CC1`, the melting point was in the range of 129 to 130 °C.

For `NC1N=C(c2ccccc2)c2ccccc2NC1=O` (configuration not stated), the melting point lay in the range of 196 to 197 °C.

As for `CCOC(=O)NC[C@H]1CN(c2ccc(N3CCC(n4ncnn4)CC3)c(F)c2)C(=O)O1`, the melting point was in the range of 176 to 178 °C.

`COC(=O)c1cccc2c1c(C(C[N+](=O)[O-])C[N+](=O)[O-])cn2C` yielded a melting point of 142 to 145 °C.

Regarding `Cc1cnc(C2=NC(C)(C(C)C)C(=O)N2)c(C(O)(c2cccs2)c2cccs2)c1` (configuration not stated), the melting point lay within 190 to 191 °C.

Compound `C=C1CC(COc2cccc3ccc(C)nc23)(c2ccc(Cl)cc2)OC1=O` (configuration not stated) had a melting point of 129 to 130 °C.

Compound `O=C(Cl)c1cc(C(=O)Cl)[nH]n1` displayed a melting point of 89 to 91 °C.

`CN(C)c1ccc(C2=NN(S(=O)(=O)c3ccc(I)cc3)CCC2)cc1` came in with a melting point of 203 to 205 °C.

As for `CN1CCN(C(=O)c2ccc(-c3cnc4c(c3)N(C(=O)c3cc(F)ccc3F)CCN4)cc2)CC1`, the melting point lay within 201 to 203 °C.
